Data on 22 compounds can be found in patent US12157730B2, “Heteroaryl derivative, method for producing same, and pharmaceutical composition comprising same as effective component” (VORONOI INC., priority 2019, dated 2024).

This assay concerns the target T1, Ba/F3 cell EGFR Exon20 ins NPH (Homo sapiens, UniProt P00533, INS773NPH).
T1 construct: expressed in transfected cells; host or cells: Ba/F3
The assay can be described thus: Ba/F3 cell proliferation suppression, EGFR Exon20 ins NPH. Format: cell-based. As to conditions: GI50 class; Ba/F3 cell line with NPH inserted at Exon20 of EGFR; 72 hours. The method in brief:
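72 h compound exposure, 0.3 nM–50 um (12 points, 3:1 dilution in DMSO); viability by CellTiter-Glo luminescence. Ba/F3 medium: RPMI-1640, 10% FBS, 5 ng/ml IL-3, 1 ug/ml puromycin for transduced cells. GI50 vs control, n=3.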

SMILES strings stand for the structures.

For the compound `COc1cc(N2CCC(N3CCN(C4CC4)CC3)CC2)c(NC(=O)/C=C/CN(C)C)cc1Nc1cc(N2OCC[C@@H]2c2cc(F)cc(F)c2)ncn1` [Example 117, N-(2-(4-(4-cyclopropylpiperazine-1-yl)piperidine-1-yl)-5-((6-((R)-3-(3,5-difluorophenyl)isoxazolidine-2-yl)pyrimidine-4-yl)amino)-4-methoxyphenyl)-(E)-4-(dimethylamino) but-2-enamide], the “Ba/F3 (NPH) Activity” value was “A (GI50 < 50 nM)”.
The result for `C=CC(=O)Nc1cc(Nc2cc(N3OCC[C@@H]3c3cc(F)cc(F)c3)ncn2)c(OC)cc1N1CCC(N2CCN(CCN(C)C)CC2)CC1` [compound 753, N-(5-((6-((R)-3-(3,5-difluorophenyl)isoxazolidine-2-yl)pyrimidine-4-yl)amino)-2-(4-(4-(2-(dimethylamino)ethyl)piperazine-1-yl)piperidine-1-yl)-4-methoxyphenyl) acrylamide] reads “A (GI50 < 50 nM)”.
As to `C=CC(=O)Nc1cc(Nc2cc(N3OCC[C@@H]3c3cccc(F)c3Cl)ncn2)c(OC)cc1N1CCC(N2C[C@H]3C[C@@H]2CO3)CC1` [compound 634, N-(2-(4-((1R,4R)-2-oxa-5-azabicyclo [2.2.1]heptane-5-yl)piperidine-1-yl)-5-((6-((R)-3-(2-chloro-3-fluorophenyl)isoxazolidine-2-yl)pyrimidine-4-yl)amino)-4-methoxyphenyl) acrylamide], the “Ba/F3 (NPH) Activity” value is “A (GI50 < 50 nM)”.
Consider `C=CC(=O)Nc1cc(Nc2cc(N3OCC[C@@H]3c3ccccc3)ncn2)c(OC)cc1N1CCC(N2CCN(CCN(C)C)CC2)CC1` [compound 739, N-(2-(4-(4-(2-(dimethylamino)ethyl)piperazine-1-yl)piperidine-1-yl)-4-methoxy-5-((6-((R)-3-phenylisoxazolidine-2-yl)pyrimidine-4-yl)amino)phenyl) acrylamide], for which the “Ba/F3 (NPH) Activity” value is recorded as “B (50 nM ≤ GI50 < 500 nM)”.
To `C=CC(=O)Nc1cc(Nc2cc(N3OCC[C@@H]3c3cccc(Cl)c3)ncn2)c(OC)cc1N1CCN(C2CC2)CC1` [compound 463, N-(5-((6-((R)-3-(3-chlorophenyl)isoxazolidine-2-yl)pyrimidine-4-yl)amino)-2-(4-cyclopropylpiperazine-1-yl)-4-methoxyphenyl) acrylamide] belongs “B (50 nM ≤ GI50 < 500 nM)”; to `C=CC(=O)Nc1cc(Nc2cc(N3OCC[C@@H]3c3ccc(C)nc3)ncn2)c(OC)cc1N1CCC(N2CCN(C3CC3)CC2)CC1` [Example 67, N-(2-(4-(4-cyclopropylpiperazine-1-yl)piperidine-1-yl)-4-methoxy-5-((6-((R)-3-(6-methylpyridine-3-yl)isoxazolidine-2-yl)pyrimidine-4-yl)amino)phenyl) acrylamide], “B (50 nM ≤ GI50 < 500 nM)”.
With `C=CC(=O)Nc1cc(Nc2cc(N3OCC[C@@H]3c3ccc(F)cc3F)ncn2)c(OC)cc1N1CCC(N2CC[C@@H](N(C)C)C2)CC1` [compound 429, N-(5-((6-((R)-3-(2,4-difluorophenyl)isoxazolidine-2-yl)pyrimidine-4-yl)amino)-2-(4-((R)-3-(dimethylamino)pyrolidine-1-yl)piperidine-1-yl)-4-methoxyphenyl) acrylamide], the “Ba/F3 (NPH) Activity” value is on record as “A (GI50 < 50 nM)”.
The result for `C=CCN1CCN(C2CCN(c3cc(OC)c(Nc4cc(N5OCC[C@@H]5c5cccc(F)c5F)ncn4)cc3NC(=O)C=C)CC2)CC1` [Example 209, N-(2-(4-(4-allylpiperazine-1-yl)piperidine-1-yl)-5-((6-((R)-3-(2,3-difluorophenyl)isoxazolidine-2-yl)pyrimidine-4-yl)amino)-4-methoxyphenyl) acrylamide] reads “A (GI50 < 50 nM)”.
With `C=CC(=O)Nc1cc(Nc2cc(N3OCC[C@@H]3c3cccc(Cl)c3)ncn2)c(OC)cc1N1CCC(N2C[C@@H]3C[C@H]2CO3)CC1` [compound 462, N-(2-(4-((1S,4S)-2-oxa-5-azabicyclo [2.2.1]heptane-5-yl)piperidine-1-yl)-5-((6-((R)-3-(3-chlorophenyl)isoxazolidine-2-yl)pyrimidine-4-yl)amino)-4-methoxyphenyl) acrylamide], the “Ba/F3 (NPH) Activity” value is recorded as “A (GI50 < 50 nM)”.
To `C=CC(=O)Nc1cc(Nc2cc(N3OCC[C@@H]3c3ccc(Cl)c(F)c3)ncn2)c(OC)cc1N1C[C@H]2C[C@@H]1CO2` [compound 863, N-(2-((1R,4R)-2-oxa-5-azabicyclo [2.2.1]heptane-5-yl)-5-((6-((R)-3-(4-chloro-3-fluorophenyl)isoxazolidine-2-yl)pyrimidine-4-yl)amino)-4-methoxyphenyl) acrylamide] belongs “A (GI50 < 50 nM)”; to `C=CC(=O)Nc1cc(Nc2cc(N3OCC[C@@H]3c3cc(F)cc(F)c3)ncn2)c(OC)cc1N1CCOCC1` [compound 823, N-(5-((6-((R)-3-(3,5-difluorophenyl)isoxazolidine-2-yl)pyrimidine-4-yl)amino)-4-methoxy-2-morpholinophenyl) acrylamide], “A (GI50 < 50 nM)”.
Turning to `C=CC(=O)Nc1cc(Nc2cc(N3OCC[C@@H]3c3ccc(Cl)cc3)ncn2)c(OC)cc1N1CCC(N2C[C@@H]3C[C@H]2CO3)CC1` [compound 866, N-(2-(4-((1S,4S)-2-oxa-5-azabicyclo [2.2.1]heptane-5-yl)piperidine-1-yl)-5-((6-((R)-3-(4-chlorophenyl)isoxazolidine-2-yl)pyrimidine-4-yl)amino)-4-methoxyphenyl) acrylamide], the “Ba/F3 (NPH) Activity” value is recorded as “A (GI50 < 50 nM)”.
On to `C=CC(=O)Nc1cc(Nc2cc(N3OCC[C@@H]3c3ccc4ccccc4c3)ncn2)c(OC)cc1N1CCC(N2CCN(C3CC3)CC2)CC1` [Example 151, N-(2-(4-(4-cyclopropylpiperazine-1-yl)piperidine-1-yl)-4-methoxy-5-((6-((R)-3-(naphthalene-2-yl)isoxazolidine-2-yl)pyrimidine-4-yl)amino)phenyl)acrylamide], for which the “Ba/F3 (NPH) Activity” value is given as “B (50 nM ≤ GI50 < 500 nM)”.
The result for `C=CC(=O)Nc1cc(Nc2cc(N3OCC[C@@H]3c3cccc(F)c3Cl)ncn2)c(OC)cc1N1CCC(N2CCN(CC)CC2)CC1` [compound 602, N-(5-((6-((R)-3-(2-chloro-3-fluorophenyl)isoxazolidine-2-yl)pyrimidine-4-yl)amino)-2-(4-(4-thylpiperazine-1-yl)piperidine-1-yl)-4-methoxyphenyl) acrylamide] reads “A (GI50 < 50 nM)”; that for `C=CC(=O)Nc1cc(Nc2cc(N3OCC[C@@H]3c3cc(F)cc(Cl)c3)ncn2)c(OC)cc1N1CCC(N2CCO[C@H](C)C2)CC1` [compound 596, N-(5-((6-((R)-3-(3-chloro-5-fluorophenyl)isoxazolidine-2-yl)pyrimidine-4-yl)amino)-4-methoxy-2-(4-((R)-2-methylmorpholino)piperidine-1-yl)phenyl)acrylamide], “A (GI50 < 50 nM)”.
Consider `C=CC(=O)Nc1cc(Nc2cc(N3OCC[C@@H]3c3ccc(F)c(Cl)c3)ncn2)c(OC)cc1N1CCC(N2CCOCC2)CC1` [compound 720, N-(5-((6-((R)-3-(3-chloro-4-fluorophenyl)isoxazolidine-2-yl)pyrimidine-4-yl)amino)-4-methoxy-2-(4-morpholinopiperidine-1-yl)phenyl)acrylamide], for which the “Ba/F3 (NPH) Activity” value is given as “A (GI50 < 50 nM)”.
The result for `C=CC(=O)Nc1cc(Nc2cc(N3OCC[C@@H]3c3ccc(Cl)c(Cl)c3F)ncn2)c(OC)cc1N1CCC(N2CCN(C3CCC3)CC2)CC1` [Example 74, N-(2-(4-(4-cyclobutylpiperazine-1-yl)piperidine-1-yl)-5-((6-((R)-3-(3,4-dichloro-2-fluorophenyl)isoxazolidine-2-yl)pyrimidine-4-yl)amino)-4-methoxyphenyl) acrylamide] reads “B (50 nM ≤ GI50 < 500 nM)”; that for `C=CC(=O)Nc1cc(Nc2cc(N3OCC[C@@H]3c3cccc(Cl)c3Cl)ncn2)c(OC)cc1N1CCN(C)CC1` [compound 481, N-(5-((6-((R)-3-(2,3-dichlorophenyl)isoxazolidine-2-yl)pyrimidine-4-yl)amino)-4-methoxy-2-(4-methylpiperazine-1-yl)phenyl)acrylamide], “A (GI50 < 50 nM)”; that for `C=CC(=O)Nc1cc(Nc2cc(N3OCC[C@@H]3c3ccc(Cl)c(Cl)c3F)ncn2)c(OC)cc1N1CCC(N2CCN(C3CC3)CC2)CC1` [Example 60, N-(2-(4-(4-cyclopropylpiperazine-1-yl)piperidine-1-yl)-5-((6-((R)-3-(3,4-dichloro-2-fluorophenyl)isoxazolidine-2-yl)pyrimidine-4-yl)amino)-4-methoxyphenyl) acrylamide;], “A (GI50 < 50 nM)”.
`C=CC(=O)Nc1cc(Nc2cc(N3OCC[C@@H]3c3cc(F)cc(F)c3)ncn2)c(OC)cc1N1CCC(N2C[C@@H]3CCN(C)[C@@H]3C2)CC1` [compound 446, N-(5-((6-((R)-3-(3,5-difluorophenyl)isoxazolidine-2-yl)pyrimidine-4-yl)amino)-4-methoxy-2-(4-((3aS,6aS)-1-methylhexahydropyrrolo [3,4-b]pyrrole-5(1H)-yl)piperidine-1-yl)phenyl)acrylamide]: the “Ba/F3 (NPH) Activity” value is given as “A (GI50 < 50 nM)”.
To `C=CC(=O)Nc1cc(Nc2cc(N3OCC[C@@H]3c3cc(F)cc(F)c3)ncn2)c(OC)cc1N1CCC(N2C[C@@H](C)O[C@@H](C)C2)CC1` [Example 266, N-(5-((6-((R)-3-(3,5-difluorophenyl)isoxazolidine-2-yl)pyrimidine-4-yl)amino)-2-(4-((2S,6R)-2,6-dimethylmorpholino)piperidine-1-yl)-4-methoxyphenyl) acrylamide] belongs “A (GI50 < 50 nM)”; to `C=CC(=O)Nc1cc(Nc2cc(N3OCC[C@H]3Cc3ccccc3)ncn2)c(OC)cc1N1CCN(C2CCOCC2)CC1` [compound 975, N-(5-((6-((R)-3-benzylisoxazolidine-2-yl)pyrimidine-4-yl)amino)-4-methoxy-2-(4-(tetrahydro-2H-pyran-4-yl)piperazine-1-yl)phenyl)acrylamide], “C (500 nM ≤ GI50 < 5000 nM)”.
